Test results as given in ChEMBL document CHEMBL4402560, “Sarco/Endoplasmic Reticulum Calcium ATPase Inhibitors: Beyond Anticancer Perspective” (J Med Chem, 2020).

System: Mycobacterium tuberculosis variant bovis
Assay: Antimycobacterial activity against Mycobacterium bovis
Type: functional, organism-based

`C/C=C(/C)C(=O)O[C@@H]1C[C@H]2C(=C1C)[C@@H]1OC(=O)[C@@](C)(O)[C@@]1(O)[C@@H](OC(=O)CCCCn1cc([C@]3(O)CC[C@H]4[C@@H]5CCc6cc(OC)ccc6[C@H]5CC[C@@]43C)nn1)C[C@]2(C)OC(C)=O` was tested, and the IC50 was 10.6 µM.

`C/C=C(\C)C(=O)O[C@@H]1C[C@H]2C(=C1C)[C@@H]1OC(=O)[C@@](C)(O)[C@@]1(O)[C@@H](OC(=O)[C@H](C)CC)C[C@@]2(C)OC(C)=O` showed an IC50 of 27.3 µM.
